Reference: ChEMBL document CHEMBL3045955, “Design, synthesis and structure-activity relationship of novel insecticidal dichloro-allyloxy-phenol derivatives containing substituted pyrazol-3-ols” (2013)

Experiments:
Format in all cases: functional
Conditions in all cases: 72 h
Plutella xylostella [1] = assay: Insecticidal activity against third-instar larvae of Plutella xylostella (diamondback moth) fed on compound treated cabbage leaves assessed as mortality at 6.25 mg/l after 3 days relative to control
Plutella xylostella [2] = assay: Insecticidal activity against third-instar larvae of Plutella xylostella (diamondback moth) fed on compound treated cabbage leaves assessed as mortality at 100 mg/l after 3 days relative to control
Plutella xylostella [3] = assay: Insecticidal activity against third-instar larvae of Plutella xylostella (diamondback moth) fed on compound treated cabbage leaves assessed as mortality at 25 mg/l after 3 days relative to control

Cn1nc(OCCCOc2c(Cl)cc(OCC=C(Cl)Cl)cc2Cl)cc1-c1ccc(Cl)cc1Cl
mortality at 6.25 µg/mL (Plutella xylostella [1]): 0% | mortality at 100 µg/mL (Plutella xylostella [2]): 100% | mortality at 25 µg/mL (Plutella xylostella [3]): 80%

FC(F)(F)c1ccc(OCCCOc2c(Cl)cc(OCC=C(Cl)Cl)cc2Cl)nc1 [PYRIDALYL]
mortality at 6.25 µg/mL (Plutella xylostella [1]): 65% | mortality at 100 µg/mL (Plutella xylostella [2]): 100% | mortality at 25 µg/mL (Plutella xylostella [3]): 100%

Cc1ccc(-c2c(C)c(OCCOc3c(Cl)cc(OCC=C(Cl)Cl)cc3Cl)nn2C)cc1
mortality at 6.25 µg/mL (Plutella xylostella [1]): 0% | mortality at 100 µg/mL (Plutella xylostella [2]): 17% | mortality at 25 µg/mL (Plutella xylostella [3]): 0%

CCc1ccc(-c2cc(OCCCOc3c(Cl)cc(OCC=C(Cl)Cl)cc3Cl)nn2C)cc1
mortality at 6.25 µg/mL (Plutella xylostella [1]): 30% | mortality at 100 µg/mL (Plutella xylostella [2]): 70% | mortality at 25 µg/mL (Plutella xylostella [3]): 40%

CCc1ccc(-c2c(C)c(OCCCOc3c(Cl)cc(OCC=C(Cl)Cl)cc3Cl)nn2C)cc1
mortality at 6.25 µg/mL (Plutella xylostella [1]): 60% | mortality at 100 µg/mL (Plutella xylostella [2]): 100% | mortality at 25 µg/mL (Plutella xylostella [3]): 77%

Cc1c(OCCCOc2c(Cl)cc(OCC=C(Cl)Cl)cc2Cl)nn(C)c1-c1ccccc1
mortality at 6.25 µg/mL (Plutella xylostella [1]): 0% | mortality at 100 µg/mL (Plutella xylostella [2]): 100% | mortality at 25 µg/mL (Plutella xylostella [3]): 30%

Cc1c(OCCCOc2c(Cl)cc(OCC=C(Cl)Cl)cc2Cl)nn(C)c1-c1ccc(Cl)cc1Cl
mortality at 6.25 µg/mL (Plutella xylostella [1]): 67% | mortality at 100 µg/mL (Plutella xylostella [2]): 85% | mortality at 25 µg/mL (Plutella xylostella [3]): 80%

Cn1nc(OCCCOc2c(Cl)cc(OCC=C(Cl)Cl)cc2Cl)cc1-c1ccccc1
mortality at 6.25 µg/mL (Plutella xylostella [1]): 75% | mortality at 100 µg/mL (Plutella xylostella [2]): 100% | mortality at 25 µg/mL (Plutella xylostella [3]): 100%

Cc1ccc(-c2cc(OCCCOc3c(Cl)cc(OCC=C(Cl)Cl)cc3Cl)nn2C)c(C)c1
mortality at 6.25 µg/mL (Plutella xylostella [1]): 30% | mortality at 100 µg/mL (Plutella xylostella [2]): 90% | mortality at 25 µg/mL (Plutella xylostella [3]): 50%

Cc1ccc(-c2cc(OCCCOc3c(Cl)cc(OCC=C(Cl)Cl)cc3Cl)nn2C)cc1C
mortality at 6.25 µg/mL (Plutella xylostella [1]): 0% | mortality at 100 µg/mL (Plutella xylostella [2]): 80% | mortality at 25 µg/mL (Plutella xylostella [3]): 50%

Cc1c(OCCCOc2c(Cl)cc(OCC=C(Cl)Cl)cc2Cl)nn(C)c1-c1ccc(C(C)C)cc1
mortality at 6.25 µg/mL (Plutella xylostella [1]): 85% | mortality at 100 µg/mL (Plutella xylostella [2]): 100% | mortality at 25 µg/mL (Plutella xylostella [3]): 100%

Cc1ccc(C)c(-c2c(C)c(OCCCOc3c(Cl)cc(OCC=C(Cl)Cl)cc3Cl)nn2C)c1
mortality at 6.25 µg/mL (Plutella xylostella [1]): 37% | mortality at 100 µg/mL (Plutella xylostella [2]): 75% | mortality at 25 µg/mL (Plutella xylostella [3]): 67%

CCc1ccc(-c2c(C)c(OCCCCOc3c(Cl)cc(OCC=C(Cl)Cl)cc3Cl)nn2C)cc1
mortality at 6.25 µg/mL (Plutella xylostella [1]): 10% | mortality at 100 µg/mL (Plutella xylostella [2]): 100% | mortality at 25 µg/mL (Plutella xylostella [3]): 50%

Cc1ccc(-c2c(C)c(OCCCOc3c(Cl)cc(OCC=C(Cl)Cl)cc3Cl)nn2C)c(C)c1
mortality at 6.25 µg/mL (Plutella xylostella [1]): 30% | mortality at 100 µg/mL (Plutella xylostella [2]): 90% | mortality at 25 µg/mL (Plutella xylostella [3]): 60%

Cc1ccc(-c2c(C)c(OCCCOc3c(Cl)cc(OCC=C(Cl)Cl)cc3Cl)nn2C)cc1
mortality at 6.25 µg/mL (Plutella xylostella [1]): 95% | mortality at 100 µg/mL (Plutella xylostella [2]): 100% | mortality at 25 µg/mL (Plutella xylostella [3]): 100%

CCOc1ccc(-c2c(C)c(OCCCOc3c(Cl)cc(OCC=C(Cl)Cl)cc3Cl)nn2C)cc1
mortality at 6.25 µg/mL (Plutella xylostella [1]): 10% | mortality at 100 µg/mL (Plutella xylostella [2]): 100% | mortality at 25 µg/mL (Plutella xylostella [3]): 20%

Cc1c(OCCCOc2c(Cl)cc(OCC=C(Cl)Cl)cc2Cl)nn(C)c1-c1ccc(F)cc1
mortality at 6.25 µg/mL (Plutella xylostella [1]): 30% | mortality at 100 µg/mL (Plutella xylostella [2]): 100% | mortality at 25 µg/mL (Plutella xylostella [3]): 80%

Cc1ccc(-c2c(C)c(OCCCCOc3c(Cl)cc(OCC=C(Cl)Cl)cc3Cl)nn2C)cc1
mortality at 6.25 µg/mL (Plutella xylostella [1]): 42% | mortality at 100 µg/mL (Plutella xylostella [2]): 100% | mortality at 25 µg/mL (Plutella xylostella [3]): 50%

Cc1c(OCCCOc2c(Cl)cc(OCC=C(Cl)Cl)cc2Cl)nn(C)c1-c1ccc(C(C)(C)C)cc1
mortality at 6.25 µg/mL (Plutella xylostella [1]): 30% | mortality at 100 µg/mL (Plutella xylostella [2]): 100% | mortality at 25 µg/mL (Plutella xylostella [3]): 87%

Cc1ccc(-c2c(C)c(OCCCOc3c(Cl)cc(OCC=C(Cl)Cl)cc3Cl)nn2C)cc1C
mortality at 6.25 µg/mL (Plutella xylostella [1]): 87% | mortality at 100 µg/mL (Plutella xylostella [2]): 100% | mortality at 25 µg/mL (Plutella xylostella [3]): 100%

Cc1c(OCCCOc2c(Cl)cc(OCC=C(Cl)Cl)cc2Cl)nn(C)c1-c1ccc(Cl)c(Cl)c1
mortality at 6.25 µg/mL (Plutella xylostella [1]): 50% | mortality at 100 µg/mL (Plutella xylostella [2]): 100% | mortality at 25 µg/mL (Plutella xylostella [3]): 75%

CCc1ccc(-c2c(C)c(OCCOc3c(Cl)cc(OCC=C(Cl)Cl)cc3Cl)nn2C)cc1
mortality at 6.25 µg/mL (Plutella xylostella [1]): 0% | mortality at 100 µg/mL (Plutella xylostella [2]): 67% | mortality at 25 µg/mL (Plutella xylostella [3]): 33%

Cc1ccccc1-c1cc(OCCCOc2c(Cl)cc(OCC=C(Cl)Cl)cc2Cl)nn1C
mortality at 6.25 µg/mL (Plutella xylostella [1]): 40% | mortality at 100 µg/mL (Plutella xylostella [2]): 100% | mortality at 25 µg/mL (Plutella xylostella [3]): 70%

COc1ccc(-c2c(C)c(OCCCOc3c(Cl)cc(OCC=C(Cl)Cl)cc3Cl)nn2C)cc1
mortality at 6.25 µg/mL (Plutella xylostella [1]): 10% | mortality at 100 µg/mL (Plutella xylostella [2]): 100% | mortality at 25 µg/mL (Plutella xylostella [3]): 40%

Cn1nc(OCCCOc2c(Cl)cc(OCC=C(Cl)Cl)cc2Cl)cc1-c1ccc(Cl)cc1
mortality at 6.25 µg/mL (Plutella xylostella [1]): 65% | mortality at 100 µg/mL (Plutella xylostella [2]): 100% | mortality at 25 µg/mL (Plutella xylostella [3]): 100%

Cc1c(OCCCOc2c(Cl)cc(OCC=C(Cl)Cl)cc2Cl)nn(C)c1-c1ccc(Cl)cc1
mortality at 6.25 µg/mL (Plutella xylostella [1]): 20% | mortality at 100 µg/mL (Plutella xylostella [2]): 80% | mortality at 25 µg/mL (Plutella xylostella [3]): 50%
